In PMC11720699, “Developing Allosteric Chaperones for GBA1-Associated Disorders—An Integrated Computational and Experimental Approach” (International Journal of Molecular Sciences, 2024):
Residue numbers refer to the chain shown, from its start.

What was measured:
[1] = biological target: T1, human recombinant GCase (Cerezyme) (Homo sapiens, UniProt P04062, R534H); test: Surface plasmon resonance (SPR) binding to immobilized GCase; conditions: pH 7.4; for Chi^2 / Offset: SPR fit; for Dose-response / Kd / Rmax: SPR
T1 construct: The human full-length GCase protein (Cerezyme, wild type, not tagged; Genzyme, Naarden, The Netherlands); purchased Genzyme
T1 sequence (P04062 40-536 R534H): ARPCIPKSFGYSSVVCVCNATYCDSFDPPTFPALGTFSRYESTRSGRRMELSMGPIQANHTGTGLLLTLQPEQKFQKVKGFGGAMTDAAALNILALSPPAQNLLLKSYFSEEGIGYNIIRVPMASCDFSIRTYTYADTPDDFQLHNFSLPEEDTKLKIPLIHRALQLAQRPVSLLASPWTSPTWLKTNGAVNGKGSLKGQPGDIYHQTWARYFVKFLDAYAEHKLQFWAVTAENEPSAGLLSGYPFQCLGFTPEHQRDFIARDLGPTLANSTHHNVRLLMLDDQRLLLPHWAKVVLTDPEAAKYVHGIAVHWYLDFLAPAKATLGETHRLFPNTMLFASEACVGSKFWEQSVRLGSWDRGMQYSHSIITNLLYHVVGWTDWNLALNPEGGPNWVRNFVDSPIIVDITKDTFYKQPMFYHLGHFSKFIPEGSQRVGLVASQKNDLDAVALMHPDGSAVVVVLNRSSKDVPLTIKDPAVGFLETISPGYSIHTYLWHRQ
Experimental: The surface plasmon resonance (SPR) technique is used to detect changes in the refractive index on the surface of a sensor due to changes in mass. […] Binding to GCase by SPR was confirmed for selected compounds using recombinant human GCase protein at a neutral pH of 7.4 (Figure 4A,B). […] Compounds 2 and 3, along with isofagomine (IFG) as a control, were evaluated in an activity assay using lysates from wild-type fibroblasts (Figure 4C).
All SPR experiments were performed at 20 °C using the Biacore T200 (GE Healthcare, Uppsala, Sweden). SPR detects changes in the refractive index on the sensor surface due to mass changes, which helps measure the interaction between the GCase protein (Cerezyme) and the tested compounds.
The human full-length GCase protein (Cerezyme, wild type, not tagged; Genzyme, Naarden, The Netherlands) was immobilized on an SPR CM5 sensor (29149603, GE Healthcare, Chicago, IL, USA) using standard amino coupling with a high protein concentration of 100 µg/mL. A nine-point, 2-fold serial dilution starting from 180 µM of the compound (from a 10 mM stock solution in DMSO) was tested by SPR at pH 7.4 in a buffer containing 10 mM Hepes, 5 mM EDTA, 150 mM NaCl, 0.01% Tween-20, 0.5 mg/mL CM-Dextran, and 5% DMSO. Reference channels included empty, activated, and deactivated channels on the same SPR sensor. The raw SPR signals from the active channel with immobilized GCase were adjusted by subtracting signals from the reference channel and the running buffer (double referenced) and corrected for any DMSO signal mismatch. Binding affinity values were extracted by fitting the SPR data to a four-parameter logarithmic dose-response equation without constraints using GraphPad Prism version 10.2.3.

GCase = biological target: T2, GCase (Homo sapiens, UniProt P04062); test: GCase biochemical activity assay in wild-type fibroblast lysates; set-up: endogenous in cells; host or cells: wild-type fibroblasts (lysate); conditions: pH 5.6
T2 sequence (P04062 40-536): T1 sequence (P04062 40-536 R534H) with H495R
Experimental: Lysates were prepared from wild-type fibroblasts using a lysis buffer containing 0.9% NaCl and 0.01% Triton-X100. Protein concentration was measured with a BCA protein assay kit. The cell lysates were then incubated with the specified compound for 15 min. The assay was conducted in a reaction buffer with 5 mM 4-methylumbelliferyl-beta-D-glucopyranoside in 0.1 M citrate-phosphate buffer at pH 5.6. The reactions were incubated at 37 °C for 1 h. To stop the reaction, 140 µL of 100 mM Glycine-NaOH buffer at pH 10.7 was added. The released 4-MU was measured using a Glomax® Discover microplate reader, with excitation at 340 nm and emission at 460 nm.

SMILES	Chi^2 [1]	Offset [1]	Dose-response [1]	Kd [1]	Rmax [1]	effect on GCase enzymatic activity in lysates (GCase)
CN(Cc1ccccc1)Cc1nc(N)nc(Nc2cccc(Br)c2)n1 [Compound 2]	1.28 RU^2	1.959 RU	Yes	29.8 µM	35.57 RU	displayed inhibitory effects
CN(C(=O)c1cc(N)cc(Nc2cccc3c2OCO3)n1)c1ccccc1 [Compound 3]	2.61 RU^2	−1.406 RU	Yes	50.7 µM	22.73 RU	without altering its enzymatic function
